Patent US9517225B2, “Low dose lipoic acid pharmaceutical compositions and methods” (ENCORE HEALTH, LLC, priority 2008, dated 2016)

Columns and labels:
Format in all cases: cell-based
[1] = test system: protein disulfides in the mouse lenses; experiment: Decrease in disulfide bonds: protein SH/SS in lens homogenates by fluorescent alkylation; settings: FIG. 5, p≦0.05 vs control
Experimental: FIG. 5 depicts a scattergram of the percent of the total protein SH groups in disulfide bonds. Free SH groups were alkylated with 4-acetamido-4′-maleimidylstilbene-2,2′-sulfonic acid (c, 1 μM, 5 μM, 9.6 μM, 50 μM, 96 μM) or 7-diethylamino-3-(4′maleimidylphenyl)-4-methyl coumarin (500 μM, and 500 μM c). Following removal of the first alkylating agent, the S—S bonds were reduced and alkylated with fluorescein-5-maleimide. Absorption spectra were used to calculated total protein (A280 nm), free protein SH (A322 or A384), and protein SS (A490) using the appropriate extinction coefficients. The symbol ‡ indicates statistically significant difference of mean with mean of control (c, p≦0.05).
Mouse lenses were homogenized in a denaturing buffer containing a fluorescent alkylating agent to modify the free SH groups. After removing the alkylating agent homogenates were reduced and alkylated with a different fluorescent alkylating agent. Absorption spectra of the modified proteins were used to calculate free protein SH and protein SS groups.

mouse lenses = experiment: Increase in elasticity: lens organ culture, change in lens diameter under coverslip (ΔD); settings: mouse lenses incubated 8-15 hours, 0.5 μM to 500 μM tested, p<0.0001
Description: FIG. 4 depicts a scatter plot of the change in ΔD (micrometers) in the absence (control) and presence of lipoic acid in lens organ culture experiments. […] Statistical values are highly significant at p<0.0001 by unpaired t-test and by Kruskal Wallis test, which compared medians of each data set. The relative change in Young's modulus (E) can be calculated as the cubic value derived from the ΔD of the control divided by the ΔD of the experimental or E fractional change=(ΔD con/ΔDexp)^3.
Increase in Elasticity: Pairs of mouse lenses were incubated in medium 200 supplemented with an antibiotic, an antimycotic, in the presence or absence of lipoic acid (concentrations ranging from 0.5 μM to 500 μM) for 8-15 hours. Each lens was removed from medium, weighed, and photographed on a micrometer scale. A coverslip of known weight (0.17899±0.00200 g) was placed on the lens, and the lens was photographed again on the micrometer scale. The diameter of each lens with and without the coverslip was determined from the photographs. The change in lens diameter produced by the force (coverslip) was computed ΔD=(Dwithcoverslip−Dwithoutcoverslip).

[2] = test system: human umbilical vein endothelial cells (HUVEC, first passage); experiment: In vitro toxicology: cell viability, MultiTox-Fluor or Live/Dead assay; settings: doses ranging from 0.1 μM to 100 μM
Experimental: Cell viability was determined using human umbilical vein endothelial cells (HUVEC, first passage). Cells were treated with the active agent in doses ranging from 0.1 μM to 100 μM. The number of live and dead cells was determined using the MultiTox-Fluor assay (Promega) or Live/Deadly® assay (Invitrogen). Logistic plots were used to determine the compound's LD50 value. Lipoic acid was not cytotoxic in the concentration range.

In the case of `O=C(O)CCCCC1CCSS1` (stereo not drawn) [lipoic acid, 5-(1,2-dithiolan-3-yl)pentanoic acid], the “concentrations causing a statistically significant decrease in protein disulfides” value [1] is reported as at least 9.6 µM, the “concentrations causing a statistically significant increase in ΔD” value (mouse lenses) is reported as at least 9.6 µM and the “cytotoxicity (live and dead cells)” value [2] is reported as “not cytotoxic”.
